The text below walks through data of paper PMC4648050, “Discovery of Inhibitors of Trypanosoma brucei by Phenotypic Screening of a Focused Protein Kinase Library” (Chemmedchem, 2015).

Structures are written as SMILES.

Common to all, as to format: biochemical, human/mammalian
Conditions in all cases: compound at 10 μM, read-out: % of activity respect of the control

One assay has as its target T1, PRAK (Homo sapiens, UniProt Q8IW41).
T1 sequence (Q8IW41 1-473): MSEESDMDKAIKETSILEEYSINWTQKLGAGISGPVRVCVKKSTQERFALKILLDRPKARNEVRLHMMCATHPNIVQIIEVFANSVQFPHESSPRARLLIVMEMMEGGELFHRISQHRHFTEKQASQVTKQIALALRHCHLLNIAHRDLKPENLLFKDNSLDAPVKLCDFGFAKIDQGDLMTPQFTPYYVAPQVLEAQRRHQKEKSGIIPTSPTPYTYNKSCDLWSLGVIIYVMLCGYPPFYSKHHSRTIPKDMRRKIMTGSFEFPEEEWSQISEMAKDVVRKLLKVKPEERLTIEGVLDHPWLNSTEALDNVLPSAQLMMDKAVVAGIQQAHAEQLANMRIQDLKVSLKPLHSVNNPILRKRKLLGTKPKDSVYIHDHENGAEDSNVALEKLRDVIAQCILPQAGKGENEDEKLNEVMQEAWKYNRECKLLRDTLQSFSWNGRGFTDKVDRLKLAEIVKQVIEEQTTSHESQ
In words: Kinase panel: PRAK. As for the experimental part:
(§1) The DDU kinase-focused compound set contains lead-like scaffolds that are designed to target protein kinases; they have kinase hinge binding motifs. Four of the 1H-imidazopyrazinones were screened against a human/mammalian kinase panel at the University of Dundee (http://www.kinase-screen.mrc.ac.uk) at a concentration of 10 μM. At the time of testing the panel contained 79 mammalian kinases selected to provide a broad coverage of the mammalian kinome (∼500 kinases in the human genome).[3] None of the compounds were active against any of the kinases at 10 μM.

In a further assay the target is ROCK 2 (Homo sapiens, UniProt O75116). The assay is described as follows: Kinase panel: ROCK 2. As for the experimental part: as §1
ROCK 2, sequence (O75116 whole entry): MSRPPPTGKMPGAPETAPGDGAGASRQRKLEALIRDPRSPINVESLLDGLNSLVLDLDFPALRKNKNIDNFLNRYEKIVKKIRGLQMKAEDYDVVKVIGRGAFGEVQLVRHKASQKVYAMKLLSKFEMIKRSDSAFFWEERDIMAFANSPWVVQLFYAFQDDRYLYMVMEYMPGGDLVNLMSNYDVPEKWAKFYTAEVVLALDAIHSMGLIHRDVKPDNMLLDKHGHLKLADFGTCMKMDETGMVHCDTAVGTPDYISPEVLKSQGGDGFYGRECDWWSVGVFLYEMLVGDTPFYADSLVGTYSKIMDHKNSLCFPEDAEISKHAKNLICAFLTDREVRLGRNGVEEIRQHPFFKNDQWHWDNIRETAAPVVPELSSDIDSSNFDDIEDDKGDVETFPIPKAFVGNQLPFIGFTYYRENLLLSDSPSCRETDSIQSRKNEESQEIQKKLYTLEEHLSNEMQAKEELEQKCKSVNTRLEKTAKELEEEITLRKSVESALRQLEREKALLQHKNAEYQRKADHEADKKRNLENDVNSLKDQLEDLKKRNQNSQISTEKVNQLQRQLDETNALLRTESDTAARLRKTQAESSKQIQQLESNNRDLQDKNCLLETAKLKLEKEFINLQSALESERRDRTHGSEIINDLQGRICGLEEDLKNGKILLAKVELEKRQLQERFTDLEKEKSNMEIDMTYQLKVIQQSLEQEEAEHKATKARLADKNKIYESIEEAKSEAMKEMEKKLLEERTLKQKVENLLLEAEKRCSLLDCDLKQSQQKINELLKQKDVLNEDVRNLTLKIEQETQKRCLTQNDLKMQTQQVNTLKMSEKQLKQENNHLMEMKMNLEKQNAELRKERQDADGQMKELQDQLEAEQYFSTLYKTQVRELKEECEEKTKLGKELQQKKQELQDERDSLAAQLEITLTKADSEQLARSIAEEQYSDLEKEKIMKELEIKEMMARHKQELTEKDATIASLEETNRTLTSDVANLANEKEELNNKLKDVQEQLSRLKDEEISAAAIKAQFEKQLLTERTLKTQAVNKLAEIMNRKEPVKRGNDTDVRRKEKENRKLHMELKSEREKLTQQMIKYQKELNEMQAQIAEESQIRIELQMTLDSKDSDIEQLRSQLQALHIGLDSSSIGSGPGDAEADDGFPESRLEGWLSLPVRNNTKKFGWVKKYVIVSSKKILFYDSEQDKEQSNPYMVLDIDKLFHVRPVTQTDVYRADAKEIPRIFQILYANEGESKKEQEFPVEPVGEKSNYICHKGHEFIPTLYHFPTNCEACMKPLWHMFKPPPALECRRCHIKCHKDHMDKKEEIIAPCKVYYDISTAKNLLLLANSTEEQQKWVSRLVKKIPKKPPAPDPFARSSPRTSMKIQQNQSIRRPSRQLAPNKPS
For the next assay, the target named is MST4 (Homo sapiens, UniProt Q9P289). In words: Kinase panel: MST4. As for the experimental part: as §1
MST4, sequence (Q9P289 whole entry): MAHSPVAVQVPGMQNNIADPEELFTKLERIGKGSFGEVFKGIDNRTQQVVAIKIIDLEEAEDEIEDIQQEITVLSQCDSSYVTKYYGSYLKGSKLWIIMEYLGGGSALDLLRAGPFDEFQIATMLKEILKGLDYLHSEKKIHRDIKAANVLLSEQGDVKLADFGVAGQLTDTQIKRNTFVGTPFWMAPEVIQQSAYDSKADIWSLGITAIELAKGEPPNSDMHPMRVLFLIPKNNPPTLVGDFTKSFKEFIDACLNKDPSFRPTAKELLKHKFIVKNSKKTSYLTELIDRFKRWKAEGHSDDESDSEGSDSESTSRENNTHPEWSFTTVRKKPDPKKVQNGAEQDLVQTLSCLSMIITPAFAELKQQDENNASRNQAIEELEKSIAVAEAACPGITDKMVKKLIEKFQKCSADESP
The target of a further assay is JNK2 (Homo sapiens, UniProt P45984). The assay is described as follows: Kinase panel: JNK2. As for the experimental part:
as §1

Another assay deals with Src (Homo sapiens, UniProt P12931). In words: Kinase panel: Src. As for the experimental part:
as §1

In another assay the target is EF2K (Homo sapiens, UniProt O00418). In words: Kinase panel: EF2K. As for the experimental part: as §1
A further assay has as its target GSK3b (Homo sapiens, UniProt P49841). The assay is described as follows: Kinase panel: GSK3b. As for the experimental part:
as §1

The next assay deals with IRR (Homo sapiens, UniProt P14616). The assay is described as follows: Kinase panel: IRR. As for the experimental part: as §1
IRR, sequence (P14616 27-1297): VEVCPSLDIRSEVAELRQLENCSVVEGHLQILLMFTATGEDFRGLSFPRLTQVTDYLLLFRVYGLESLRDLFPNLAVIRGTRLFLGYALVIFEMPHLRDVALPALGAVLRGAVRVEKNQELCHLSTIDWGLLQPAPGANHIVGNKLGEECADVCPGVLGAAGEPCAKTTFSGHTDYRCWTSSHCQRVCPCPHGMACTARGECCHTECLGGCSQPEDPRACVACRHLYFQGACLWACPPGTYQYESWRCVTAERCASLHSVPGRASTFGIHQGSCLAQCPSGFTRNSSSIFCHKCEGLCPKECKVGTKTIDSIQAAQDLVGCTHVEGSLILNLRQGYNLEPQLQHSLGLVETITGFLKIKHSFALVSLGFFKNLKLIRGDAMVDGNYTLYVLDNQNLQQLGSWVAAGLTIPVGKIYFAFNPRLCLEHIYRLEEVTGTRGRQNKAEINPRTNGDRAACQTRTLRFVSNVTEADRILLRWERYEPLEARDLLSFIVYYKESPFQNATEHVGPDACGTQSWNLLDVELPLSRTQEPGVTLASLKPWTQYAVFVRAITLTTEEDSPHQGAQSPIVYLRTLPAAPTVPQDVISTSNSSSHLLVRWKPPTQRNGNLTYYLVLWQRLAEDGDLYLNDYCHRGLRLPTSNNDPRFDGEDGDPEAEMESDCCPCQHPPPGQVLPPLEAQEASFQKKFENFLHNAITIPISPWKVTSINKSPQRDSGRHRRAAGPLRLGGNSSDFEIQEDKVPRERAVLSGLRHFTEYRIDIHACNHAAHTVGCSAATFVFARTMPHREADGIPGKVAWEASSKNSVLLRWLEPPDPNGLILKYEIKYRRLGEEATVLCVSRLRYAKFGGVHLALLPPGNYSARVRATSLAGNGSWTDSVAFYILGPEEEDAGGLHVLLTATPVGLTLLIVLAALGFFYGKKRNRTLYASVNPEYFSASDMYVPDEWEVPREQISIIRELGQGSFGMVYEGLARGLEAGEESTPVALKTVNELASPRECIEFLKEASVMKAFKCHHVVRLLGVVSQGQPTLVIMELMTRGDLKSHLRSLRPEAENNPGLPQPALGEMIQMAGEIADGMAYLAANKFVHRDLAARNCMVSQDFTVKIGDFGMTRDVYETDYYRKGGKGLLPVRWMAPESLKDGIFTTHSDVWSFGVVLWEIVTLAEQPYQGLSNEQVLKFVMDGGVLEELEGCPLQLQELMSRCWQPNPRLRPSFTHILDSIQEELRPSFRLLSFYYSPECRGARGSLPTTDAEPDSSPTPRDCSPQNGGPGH
A further assay has as its target T2, PKD1 (Homo sapiens, UniProt Q15139).
T2 sequence (Q15139 1-912): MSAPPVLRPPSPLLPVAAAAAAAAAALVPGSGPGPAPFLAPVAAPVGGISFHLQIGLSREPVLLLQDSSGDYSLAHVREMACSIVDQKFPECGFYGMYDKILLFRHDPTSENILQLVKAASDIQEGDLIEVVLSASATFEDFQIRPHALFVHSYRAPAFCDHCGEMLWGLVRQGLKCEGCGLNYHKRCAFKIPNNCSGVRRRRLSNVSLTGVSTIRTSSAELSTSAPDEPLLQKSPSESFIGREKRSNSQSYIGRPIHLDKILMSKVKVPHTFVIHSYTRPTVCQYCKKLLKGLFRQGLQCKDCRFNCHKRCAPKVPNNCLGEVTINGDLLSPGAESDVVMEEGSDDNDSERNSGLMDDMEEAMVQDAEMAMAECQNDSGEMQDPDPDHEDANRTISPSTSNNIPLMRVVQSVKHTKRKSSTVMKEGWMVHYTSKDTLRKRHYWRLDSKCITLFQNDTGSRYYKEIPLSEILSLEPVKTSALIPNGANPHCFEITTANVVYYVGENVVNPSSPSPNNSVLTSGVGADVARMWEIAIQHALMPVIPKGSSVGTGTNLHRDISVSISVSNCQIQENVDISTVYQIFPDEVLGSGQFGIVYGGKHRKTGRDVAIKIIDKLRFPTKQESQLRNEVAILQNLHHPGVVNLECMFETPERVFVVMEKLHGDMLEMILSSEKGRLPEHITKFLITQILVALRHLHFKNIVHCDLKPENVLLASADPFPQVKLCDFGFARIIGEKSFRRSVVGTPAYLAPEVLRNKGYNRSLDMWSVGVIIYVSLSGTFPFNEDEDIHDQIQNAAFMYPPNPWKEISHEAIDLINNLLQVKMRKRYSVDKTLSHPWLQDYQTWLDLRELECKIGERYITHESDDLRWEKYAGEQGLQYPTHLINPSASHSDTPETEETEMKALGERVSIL
In words: Kinase panel: PKD1. As for the experimental part:
as §1

A further assay deals with T3, p38g MAPK (Homo sapiens, UniProt P53778).
T3 sequence (P53778 1-367): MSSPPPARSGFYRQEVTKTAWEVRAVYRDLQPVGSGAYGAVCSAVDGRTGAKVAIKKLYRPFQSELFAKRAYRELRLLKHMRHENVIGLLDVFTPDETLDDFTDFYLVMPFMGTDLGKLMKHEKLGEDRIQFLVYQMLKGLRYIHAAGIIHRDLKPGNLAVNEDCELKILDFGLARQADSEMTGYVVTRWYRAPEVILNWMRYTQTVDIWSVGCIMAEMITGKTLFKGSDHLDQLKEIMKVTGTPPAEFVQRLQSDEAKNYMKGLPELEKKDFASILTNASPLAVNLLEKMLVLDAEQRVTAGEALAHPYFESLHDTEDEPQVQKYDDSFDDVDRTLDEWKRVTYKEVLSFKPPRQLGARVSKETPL
The assay is described as follows: Kinase panel: p38g MAPK. As for the experimental part:
as §1

The target of the next assay is DYRK1A (Homo sapiens, UniProt Q13627). The assay is described as follows: Kinase panel: DYRK1A. As for the experimental part:
as §1

The next assay addresses PKBa (Homo sapiens, UniProt P31749). The assay is described as follows: Kinase panel: PKBa. As for the experimental part:
as §1

A further assay has as its target BTK (Homo sapiens, UniProt Q06187). The assay is described as follows: Kinase panel: BTK. As for the experimental part: as §1

JNK2, sequence (P45984 whole entry): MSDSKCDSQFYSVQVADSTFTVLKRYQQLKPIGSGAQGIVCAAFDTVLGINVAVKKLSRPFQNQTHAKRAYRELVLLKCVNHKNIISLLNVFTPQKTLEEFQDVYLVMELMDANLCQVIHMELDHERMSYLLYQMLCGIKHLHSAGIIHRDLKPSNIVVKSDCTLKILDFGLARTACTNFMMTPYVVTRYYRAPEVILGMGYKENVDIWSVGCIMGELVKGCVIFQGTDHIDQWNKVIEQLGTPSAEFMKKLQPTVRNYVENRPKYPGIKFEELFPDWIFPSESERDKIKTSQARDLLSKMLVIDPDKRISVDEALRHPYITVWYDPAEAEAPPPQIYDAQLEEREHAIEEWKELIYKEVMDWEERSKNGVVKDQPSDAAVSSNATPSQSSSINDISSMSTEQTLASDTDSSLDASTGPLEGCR
PKBa, sequence (P31749 whole entry): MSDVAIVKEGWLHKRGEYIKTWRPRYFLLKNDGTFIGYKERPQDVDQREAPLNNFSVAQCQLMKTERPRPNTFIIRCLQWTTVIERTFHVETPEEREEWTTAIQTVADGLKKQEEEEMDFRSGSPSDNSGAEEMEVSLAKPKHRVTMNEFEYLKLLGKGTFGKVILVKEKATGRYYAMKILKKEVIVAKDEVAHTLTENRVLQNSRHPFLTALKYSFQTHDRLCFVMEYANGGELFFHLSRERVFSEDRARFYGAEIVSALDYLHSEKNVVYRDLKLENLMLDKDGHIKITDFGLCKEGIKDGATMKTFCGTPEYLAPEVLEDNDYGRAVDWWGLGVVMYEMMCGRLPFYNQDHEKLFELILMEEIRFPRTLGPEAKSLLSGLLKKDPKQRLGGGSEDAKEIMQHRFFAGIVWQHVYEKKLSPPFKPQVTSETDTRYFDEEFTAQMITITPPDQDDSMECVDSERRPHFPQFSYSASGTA
BTK, sequence (Q06187 whole entry): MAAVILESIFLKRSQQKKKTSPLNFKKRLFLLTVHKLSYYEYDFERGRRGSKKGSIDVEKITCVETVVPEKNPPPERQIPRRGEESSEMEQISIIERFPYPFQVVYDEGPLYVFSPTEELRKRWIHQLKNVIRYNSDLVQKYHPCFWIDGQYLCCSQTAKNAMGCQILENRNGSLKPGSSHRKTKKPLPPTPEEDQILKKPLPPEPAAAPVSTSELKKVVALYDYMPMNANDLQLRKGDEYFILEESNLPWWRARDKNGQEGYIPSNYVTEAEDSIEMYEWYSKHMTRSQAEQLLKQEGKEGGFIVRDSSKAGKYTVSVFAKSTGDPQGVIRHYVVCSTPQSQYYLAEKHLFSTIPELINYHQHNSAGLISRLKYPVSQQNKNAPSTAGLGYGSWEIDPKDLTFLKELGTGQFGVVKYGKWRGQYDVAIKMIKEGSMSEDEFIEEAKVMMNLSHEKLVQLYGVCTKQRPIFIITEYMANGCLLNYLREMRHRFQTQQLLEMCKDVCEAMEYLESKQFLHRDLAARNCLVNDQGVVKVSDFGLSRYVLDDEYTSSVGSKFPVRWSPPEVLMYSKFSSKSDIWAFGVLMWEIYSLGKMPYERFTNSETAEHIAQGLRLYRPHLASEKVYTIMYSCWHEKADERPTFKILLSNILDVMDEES
GSK3b, sequence (P49841 whole entry): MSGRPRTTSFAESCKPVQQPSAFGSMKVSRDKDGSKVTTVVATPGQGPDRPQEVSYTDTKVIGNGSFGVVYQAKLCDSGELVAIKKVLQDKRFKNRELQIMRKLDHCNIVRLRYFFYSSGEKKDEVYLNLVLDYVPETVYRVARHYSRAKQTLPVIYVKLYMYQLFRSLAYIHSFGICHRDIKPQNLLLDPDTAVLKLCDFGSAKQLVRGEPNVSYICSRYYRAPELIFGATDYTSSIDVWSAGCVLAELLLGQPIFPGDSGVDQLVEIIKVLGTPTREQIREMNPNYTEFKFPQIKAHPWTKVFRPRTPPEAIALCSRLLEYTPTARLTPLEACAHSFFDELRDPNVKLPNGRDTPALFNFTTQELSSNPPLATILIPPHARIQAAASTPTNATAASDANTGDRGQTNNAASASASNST

`CC(c1ccccc1)n1c(=O)[nH]c2ncc(-c3ccc(F)cc3)nc21` (stereo not shown) [Compound 1]: the remaining activity at 10 µM at PRAK is 103%; at ROCK 2, 105%; at MST4 it was 90%; on JNK2, 104%; at Src it was 80%; at EF2K, 93%. In addition, the remaining activity at 10 µM at GSK3b was determined as 63%; on IRR, 96%; at PKD1, 55%; on p38g MAPK, 98%; at DYRK1A it was 79%; at PKBa, 99%. The remaining activity at 10 µM on BTK is 113%.
With `O=c1[nH]c2ncc(-c3ccc(F)cc3)nc2n1CC1CC1` [Compound 10], the remaining activity at 10 µM on PRAK came out at 99%; at ROCK 2, 78%; at MST4, 92%; at JNK2, 97%; on Src it was 98%; at EF2K it was 92%. Also, the remaining activity at 10 µM at GSK3b stood at 37%; at IRR, 104%; on PKD1, 40%; at p38g MAPK it was 94%; on DYRK1A it was 113%; at PKBa, 96%. Further, the remaining activity at 10 µM at BTK was 104%.
Take `O=c1[nH]c2ncc(-c3ccc(F)cc3)nc2n1C1CCCCC1` [Compound 12, 1-Cyclohexyl-6-(4-fluorophenyl)-1H-imidazo[4,5-b]pyrazin-2(3H)-one]: the remaining activity at 10 µM on PRAK stood at 99%; on ROCK 2, 84%; on MST4 it was 100%; on JNK2, 93%; at Src, 94%; on EF2K, 98%. Also, the remaining activity at 10 µM worked out at 70% at GSK3b; 83% at IRR; 60% on PKD1; 98% at p38g MAPK; 93% at DYRK1A; 102% at PKBa. Also, on BTK, the remaining activity at 10 µM was found to be 111%.
As for `C[C@H](c1ccccc1)n1c(=O)[nH]c2ncc(-c3ccccc3)nc21` [Compound 14, (R)-6-Phenyl-1-(1-phenylethyl)-1H-imidazo[4,5-b]pyrazin-2(3H)-one], the remaining activity at 10 µM on PRAK came out at 98%; on ROCK 2 it was 85%; at MST4 it was 88%; on JNK2 it was 96%; at Src, 70%; on EF2K it was 79%. Moreover, the remaining activity at 10 µM on GSK3b amounted to 66%; on IRR, 112%; on PKD1, 44%; on p38g MAPK, 91%; on DYRK1A, 85%; on PKBa it was 89%. Besides, the remaining activity at 10 µM at BTK came out at 97%.
